Each block holds one compound with its values, some of them ahead of it. Activity calls are given as the source filed them. No cut-off for these calls is given here.
Columns and labels:
Histamine H3 receptor = Histamine H3 receptor (Rattus norvegicus, UniProt Q9QYN8); test: Displacement of N-[3H]methylhistamine from histamine H3 receptor in rat cortex membrane; assay type: cell membranes
hERG (KCNH2) = hERG (KCNH2) (Homo sapiens, UniProt Q12809); test: Inhibition of human ERG at 3 uM by patch clamp assay
[1] = Half life in Sprague-Dawley rat at 10 mg/kg, po up to 21 hrs; assay type: ADME, organism-based; parameters: dose 10 mg/kg, route oral; details: in vivo
[2] = Tmax in Sprague-Dawley rat at 10 mg/kg, po up to 21 hrs; assay type: ADME, organism-based; parameters: dose 10 mg/kg, route oral; details: in vivo
[3] = Oral bioavailability in Sprague-Dawley rat at 10 mg/kg, po up to 21 hrs; assay type: ADME, organism-based; details: in vivo
[4] = Plasma concentration in Sprague-Dawley rat at 10 mg/kg, po after 0.5 hrs; assay type: ADME, organism-based; parameters: dose 10 mg/kg, route oral
[5] = Drug level in Sprague-Dawley rat brain at 10 mg/kg, po after 0.5 hrs; assay type: ADME, organism-based; parameters: dose 10 mg/kg, route oral; details: read-out: Drug uptake
Rattus norvegicus [6] = test: Inhibition of (R)-alpha-methyl histamine induced drinking in Sprague-Dawley rat dipsogenia model at 1 mg/kg, po administered 0.5 hrs before (R)-alpha-methyl histamine challenge; assay type: functional
Rattus norvegicus [7] = test: Inhibition of (R)-alpha-methyl histamine induced drinking in Sprague-Dawley rat dipsogenia model at 3 mg/kg, po administered 0.5 hrs before (R)-alpha-methyl histamine challenge; assay type: functional
in vivo = details: Sprague-Dawley, rat, brain/plasma, po, 10 mg/kg
Rattus norvegicus [8] = test: Increase in wakefulness in Sprague-Dawley rat at 1 mg/kg, po administered 4 hrs after lights out condition measured over 5 hrs period by polysomnographic method; assay type: functional
Rattus norvegicus [9] = test: Increase in wakefulness in Sprague-Dawley rat at 0.1 mg/kg, po administered 4 hrs after lights out condition measured over 5 hrs period by polysomnographic method; assay type: functional, organism-based; parameters: dose 0.1 mg/kg
Brain = test: Drug level in Sprague-Dawley rat brain assessed as 4'-[2-((R)-2-Methyl-pyrrolidin-1-yl)-ethyl]-biphenyl-4-sulfonic Acid Amide level at 1 mg/kg, po after 3.5 hrs; assay type: ADME, organism-based; parameters: dose 1 mg/kg, route oral; details: in vivo
[10] = molecular target: Histamine H1 receptor (Homo sapiens) (UniProt P35367); test: Binding affinity to human histamine H1 receptor at 1 uM
[11] = molecular target: Histamine H2 receptor (Homo sapiens) (UniProt P25021); test: Binding affinity to human histamine H2 receptor at 1 uM
[12] = molecular target: Histamine H4 receptor (Homo sapiens) (UniProt Q9H3N8); test: Binding affinity to human histamine H4 receptor at 1 uM
Rattus norvegicus [13] = test: Inhibition of (R)-alpha-methyl histamine induced drinking in Sprague-Dawley rat dipsogenia model at 0.3 mg/kg, po administered 0.5 hrs before (R)-alpha-methyl histamine challenge; assay type: functional

Sequence of Histamine H3 receptor (Q9QYN8 whole entry): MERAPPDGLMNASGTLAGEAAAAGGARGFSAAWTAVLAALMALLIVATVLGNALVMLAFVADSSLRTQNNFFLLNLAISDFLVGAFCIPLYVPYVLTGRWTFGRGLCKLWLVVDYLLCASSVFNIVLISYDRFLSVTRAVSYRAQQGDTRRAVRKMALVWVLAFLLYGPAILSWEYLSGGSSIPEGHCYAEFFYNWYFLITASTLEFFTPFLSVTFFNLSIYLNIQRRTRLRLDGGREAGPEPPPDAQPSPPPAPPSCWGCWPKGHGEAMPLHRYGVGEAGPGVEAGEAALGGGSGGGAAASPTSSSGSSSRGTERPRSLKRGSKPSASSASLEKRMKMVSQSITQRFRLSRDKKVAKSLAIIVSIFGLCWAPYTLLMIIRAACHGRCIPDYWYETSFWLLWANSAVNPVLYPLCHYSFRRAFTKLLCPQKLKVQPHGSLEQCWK
Sequence of Histamine H1 receptor (Homo sapiens) (P35367 whole entry): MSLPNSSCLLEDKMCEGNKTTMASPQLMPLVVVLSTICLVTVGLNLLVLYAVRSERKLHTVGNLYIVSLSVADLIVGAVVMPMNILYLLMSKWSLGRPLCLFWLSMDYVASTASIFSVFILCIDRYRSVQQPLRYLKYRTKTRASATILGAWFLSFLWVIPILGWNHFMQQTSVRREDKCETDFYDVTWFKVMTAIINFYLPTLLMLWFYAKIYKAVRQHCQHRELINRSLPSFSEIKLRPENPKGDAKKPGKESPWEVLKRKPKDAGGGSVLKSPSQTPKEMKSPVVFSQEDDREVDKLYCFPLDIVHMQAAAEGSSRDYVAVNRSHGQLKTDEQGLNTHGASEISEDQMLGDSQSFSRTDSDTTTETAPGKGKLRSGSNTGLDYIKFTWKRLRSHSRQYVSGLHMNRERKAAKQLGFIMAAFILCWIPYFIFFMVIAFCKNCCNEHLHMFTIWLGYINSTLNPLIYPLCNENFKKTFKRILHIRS
Sequence of Histamine H2 receptor (Homo sapiens) (P25021 whole entry): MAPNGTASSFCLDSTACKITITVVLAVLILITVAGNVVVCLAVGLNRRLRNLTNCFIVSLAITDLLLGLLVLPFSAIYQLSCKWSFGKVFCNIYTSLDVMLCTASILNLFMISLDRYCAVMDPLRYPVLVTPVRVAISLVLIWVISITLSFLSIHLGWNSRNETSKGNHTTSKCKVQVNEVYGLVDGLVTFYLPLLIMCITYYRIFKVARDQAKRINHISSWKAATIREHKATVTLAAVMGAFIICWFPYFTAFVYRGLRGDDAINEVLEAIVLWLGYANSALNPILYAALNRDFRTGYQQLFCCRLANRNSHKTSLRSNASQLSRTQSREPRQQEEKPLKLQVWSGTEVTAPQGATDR
Sequence of hERG (KCNH2) (Q12809 whole entry): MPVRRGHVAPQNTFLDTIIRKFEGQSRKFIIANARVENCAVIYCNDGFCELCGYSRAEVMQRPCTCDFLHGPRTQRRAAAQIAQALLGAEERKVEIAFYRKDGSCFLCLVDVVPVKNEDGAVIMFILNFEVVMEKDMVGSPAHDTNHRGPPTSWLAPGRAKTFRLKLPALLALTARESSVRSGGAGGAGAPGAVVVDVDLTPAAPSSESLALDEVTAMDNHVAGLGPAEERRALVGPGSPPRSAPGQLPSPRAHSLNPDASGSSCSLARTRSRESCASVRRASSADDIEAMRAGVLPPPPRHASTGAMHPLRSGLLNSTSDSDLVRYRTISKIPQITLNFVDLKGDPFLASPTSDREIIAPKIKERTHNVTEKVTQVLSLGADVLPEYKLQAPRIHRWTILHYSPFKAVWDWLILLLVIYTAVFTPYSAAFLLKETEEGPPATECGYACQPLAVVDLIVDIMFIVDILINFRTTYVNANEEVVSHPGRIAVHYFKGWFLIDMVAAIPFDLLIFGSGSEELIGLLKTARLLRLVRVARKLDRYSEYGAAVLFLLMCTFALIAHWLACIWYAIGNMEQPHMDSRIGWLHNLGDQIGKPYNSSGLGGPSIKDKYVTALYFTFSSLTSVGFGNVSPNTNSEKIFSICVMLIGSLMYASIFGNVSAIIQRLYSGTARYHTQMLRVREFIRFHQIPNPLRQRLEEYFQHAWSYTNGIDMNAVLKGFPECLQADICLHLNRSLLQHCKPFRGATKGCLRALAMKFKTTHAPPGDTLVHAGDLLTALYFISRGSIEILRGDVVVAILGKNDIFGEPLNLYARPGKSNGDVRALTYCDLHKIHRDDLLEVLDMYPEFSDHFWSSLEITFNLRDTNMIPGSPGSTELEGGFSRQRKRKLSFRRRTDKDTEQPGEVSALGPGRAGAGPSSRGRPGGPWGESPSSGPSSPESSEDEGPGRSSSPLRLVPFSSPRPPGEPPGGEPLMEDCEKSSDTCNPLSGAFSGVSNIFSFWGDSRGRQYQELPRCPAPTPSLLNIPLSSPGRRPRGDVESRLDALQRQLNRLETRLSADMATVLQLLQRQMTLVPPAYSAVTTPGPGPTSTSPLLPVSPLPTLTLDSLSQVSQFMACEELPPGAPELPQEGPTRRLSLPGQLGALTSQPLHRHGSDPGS

Ki (Histamine H3 receptor; read-out: pKi (converted)): 0.501 nM
Structure (SMILES): C[C@@H]1CCCN1CCc1ccc(-c2ccc(S(=O)(=O)N3Cc4ccccc4C3)cc2)cc1

Ki (Histamine H3 receptor; read-out: Ki): 3 nM
half-life [1]: 2.6 h
Tmax [2]: 0.2 h
bioavailability [3]: 22%
concentration at 0.5 h [4]: 11200 ng/mL
concentration at 0.5 h [5]: 8700 ng/mL
Kp at 0.5 h (in vivo): 0.78
Structure (SMILES): COCCNS(=O)(=O)c1ccc(-c2ccc(CCN3CCC[C@H]3C)cc2)cc1
inhibition at 3 µM (hERG (KCNH2)): 29%
inhibition in vivo at 1 mg/kg (Rattus norvegicus [6]): 40.7%
inhibition in vivo at 3 mg/kg (Rattus norvegicus [7]): 96.7%

Ki (Histamine H3 receptor; read-out: pKi (converted)): 0.933 nM
Structure (SMILES): C[C@@H]1CCCN1CCc1ccc(-c2ccc(S(=O)(=O)N3CCS(=O)(=O)CC3)cc2)cc1

Ki (Histamine H3 receptor; read-out: pKi (converted)): 1.41 nM
Structure (SMILES): CCN(CC)S(=O)(=O)c1ccc(-c2ccc(CCN3CCC[C@H]3C)cc2)cc1

Structure (SMILES): C[C@@H]1CCCN1CCc1ccc(-c2ccc(S(=O)(=O)NCC3CC3)cc2)cc1
inhibition at 3 µM (hERG (KCNH2)): 54%

Structure (SMILES): C[C@@H]1CCCN1CCc1ccc(-c2ccc(S(=O)(=O)NCc3ccccc3)cc2)cc1
inhibition at 3 µM (hERG (KCNH2)): 84%

Structure (SMILES): CCNS(=O)(=O)c1ccc(-c2ccc(CCN3CCC[C@H]3C)cc2)cc1
half-life [1]: 1.8 h
Tmax [2]: 0.5 h
bioavailability [3]: 93%
concentration at 0.5 h [4]: 1600 ng/mL
concentration at 0.5 h [5]: 3600 ng/mL
inhibition in vivo at 1 mg/kg (Rattus norvegicus [6]): 77.6%
inhibition in vivo at 3 mg/kg (Rattus norvegicus [7]): 69.6%
Activity (Rattus norvegicus [8]): 40%
Activity (Rattus norvegicus [9]): inactive
Drug uptake (Brain): 246 ng/mL
Kp at 0.5 h (in vivo): 2.3
Activity [10]: < 10%
Activity [11]: < 10%
Activity [12]: < 10%

Ki (Histamine H3 receptor; read-out: pKi (converted)): 2.45 nM
Structure (SMILES): C[C@@H]1CCCN1CCc1ccc(-c2ccc(S(=O)(=O)N3CC[C@H](O)C3)cc2)cc1

Ki (Histamine H3 receptor; read-out: pKi (converted)): 7.94 nM
Structure (SMILES): CC(C)NS(=O)(=O)c1cccc(-c2ccc(CCN3CCC[C@H]3C)cc2)c1

Ki (Histamine H3 receptor; read-out: pKi (converted)): 16.2 nM
Structure (SMILES): CCN(CC)S(=O)(=O)c1cccc(-c2ccc(CCN3CCC[C@H]3C)cc2)c1

Ki (Histamine H3 receptor; read-out: pKi (converted)): 11 nM
Structure (SMILES): CCNS(=O)(=O)c1cccc(-c2ccc(CCN3CCC[C@H]3C)cc2)c1

Ki (Histamine H3 receptor; read-out: pKi (converted)): 12.6 nM
Structure (SMILES): C[C@@H]1CCCN1CCc1ccc(-c2cccc(S(=O)(=O)N3CCCCC3)c2)cc1

Ki (Histamine H3 receptor; read-out: pKi (converted)): 0.182 nM
Structure (SMILES): C[C@@H]1CCCN1CCc1ccc(-c2ccc(S(=O)(=O)NCc3ccncc3)cc2)cc1
inhibition at 3 µM (hERG (KCNH2)): 27%

Ki (Histamine H3 receptor; read-out: Ki): 2 nM
half-life [1]: 2.3 h
Tmax [2]: 0.8 h
bioavailability [3]: 62%
concentration at 0.5 h [4]: 440 ng/mL
concentration at 0.5 h [5]: 140 ng/mL
Kp at 0.5 h (in vivo): 0.32
Activity [10]: < 10%
Activity [11]: < 10%
Activity [12]: < 10%
Structure (SMILES): C[C@@H]1CCCN1CCc1ccc(-c2ccc(S(=O)(=O)NC3CCOCC3)cc2)cc1
inhibition in vivo at 1 mg/kg (Rattus norvegicus [6]): 77.5%
inhibition in vivo at 3 mg/kg (Rattus norvegicus [7]): 85.1%

concentration at 0.5 h [5]: 800 ng/g
Structure (SMILES): C[C@@H]1CCCN1CCc1ccc(-c2ccc(S(N)(=O)=O)cc2)cc1

Structure (SMILES): C[C@@H]1CCCN1CCc1ccc(-c2ccc(S(=O)(=O)NC(C)(C)CO)cc2)cc1
inhibition at 3 µM (hERG (KCNH2)): 37%

Structure (SMILES): C[C@@H]1CCCN1CCc1ccc(-c2ccc(S(=O)(=O)N3CCOCC3)cc2)cc1
Ki (Histamine H3 receptor; read-out: Ki): 2 nM
half-life [1]: 1.2 h
Tmax [2]: 1.7 h
bioavailability [3]: 12%
concentration at 0.5 h [4]: 160 ng/mL
concentration at 0.5 h [5]: 320 ng/mL
inhibition in vivo at 1 mg/kg (Rattus norvegicus [6]): 99.8%
inhibition in vivo at 0.3 mg/kg (Rattus norvegicus [13]): 34.1%
Activity [10]: < 10%
Activity [11]: < 10%
Activity [12]: < 10%

Structure (SMILES): C[C@@H]1CCCN1CCc1ccc(-c2ccc(S(=O)(=O)NC3CCC3)cc2)cc1
inhibition at 3 µM (hERG (KCNH2)): 79%
